Test results as given in patent US6653306B1, “Epoxy-steroidal aldosterone antagonist and angiotensin II antagonist combination therapy” (G.D. Searle & Co., priority 1995, dated 2003).

Target: angiotensin II AT1 receptor
Assay: Assay A: Angiotensin II binding activity (125I-AII displacement, rat uterine membrane preparation)
Procedure: Assay A: Antiotensin II Binding Activity
Compounds of the invention were tested for ability to bind to the smooth muscle angiotensin II receptor using a rat uterine membrane preparation. […] Rat uterine membranes were prepared from fresh tissue. All procedures were carried out at 4° C. Uteri were stripped of fat and homogenized in phosphate-buffered saline at pH 7.4 containing 5 mM EDTA. The homogenate was centrifuged at 1500×g for 20 min., and the supernatant was recentrifuged at 100,000×g for 60 min. The pellet was resuspended in buffer consisting of 2 mM EDTA and 50 mM Tris-HCl (pH 7.5) to a final protein concentration of 4 mg/ml. […] The reaction was initiated by the addition of membrane protein and the mixture was incubated at 25° C. for 60 min. The incubation was terminated with ice-cold 50 mM Tris-HCl (pH 7.5) and the mixture was filtered to separate membrane-bound labelled peptide from the free ligand. The incubation tube and filter were washed with ice-cold buffer. Filters were assayed for radioactivity in a Micromedic gamma counter.
Nonspecific binding was defined as binding in the presence of 10 μM of unlabelled AII. Specific binding was calculated as total binding minus nonspecific binding. […] Binding data were analyzed by a nonlinear least-squares curve fitting program.

Row | SMILES | IC50 [nM]
1 | CCCCc1nc(-c2ccccc2)nn1Cc1ccc(-c2ccccc2-c2nnn[nH]2)cc1 [Compound 21] | 87
2 | CCCCc1nc(C(OC)OC)n(Cc2ccc(-c3ccccc3-c3nnn[nH]3)cc2)n1 [Compound 23] | 430
3 | CCCCc1nc(CN)nn1Cc1ccc(-c2ccccc2-c2nnn[nH]2)cc1 [Compound 27] | 180
4 | CCCCCCCCc1nc(CCCC)nn1Cc1ccc(-c2ccccc2-c2nnn[nH]2)cc1 [Compound 28] | 570
5 | CCCCCCCCc1nc(CCCC)n(Cc2ccc(-c3ccccc3-c3nnn[nH]3)cc2)n1 [Compound 29] | 160
6 | CCCCc1nc(C(=O)CCC)nn1Cc1ccc(-c2ccccc2-c2nnn[nH]2)cc1 [Compound 31] | 14
7 | CCCCc1nc(C)nn1Cc1ccc(-c2ccccc2-c2nnn[nH]2)cc1 [Compound 32] | 16
8 | CCCCc1nc(C)n(Cc2ccc(-c3ccccc3-c3nnn[nH]3)cc2)n1 [Compound 33] | 630
9 | CCCCc1nc(CNC(=O)OC(C)(C)C)n(Cc2ccc(-c3ccccc3-c3nnn[nH]3)cc2)n1 [Compound 34] | 640
10 | CCCCc1nc(CC(OCC)OCC)nn1Cc1ccc(-c2ccccc2-c2nnn[nH]2)cc1 [Compound 38] | 10
11 | CCCCc1nc(CC)n(Cc2ccc(-c3ccccc3-c3nnn[nH]3)cc2)n1 [Compound 40] | 83
12 | CCCCc1nc(CCC2CCCCC2)nn1Cc1ccc(-c2ccccc2-c2nnn[nH]2)cc1 [Compound 43] | 19
13 | CCCCc1nc(Cc2ccccc2)nn1Cc1ccc(-c2ccccc2-c2nnn[nH]2)cc1 [Compound 44] | 16
14 | CCCCc1nc(C(F)F)n(Cc2ccc(-c3ccccc3-c3nnn[nH]3)cc2)n1 [Compound 48] | 680
15 | CCCCc1nc(C23CC4CC(CC(C4)C2)C3)n(Cc2ccc(-c3ccccc3-c3nnn[nH]3)cc2)n1 [Compound 55] | 80
16 | CCCCc1nc(C23CC4CC(CC(C4)C2)C3)nn1Cc1ccc(-c2ccccc2-c2nnn[nH]2)cc1 [Compound 56] | 5
17 | CCCCc1nc(CF)nn1Cc1ccc(-c2ccccc2-c2nnn[nH]2)cc1 [Compound 59] | 120
18 | CCCCc1nc(CF)n(Cc2ccc(-c3ccccc3-c3nnn[nH]3)cc2)n1 [Compound 60] | 2200
19 | CCCCc1nc(CC23CC4CC(CC(C4)C2)C3)n(Cc2ccc(-c3ccccc3-c3nnn[nH]3)cc2)n1 [Compound 61] | 110
20 | CCCCc1nc(C2CCCCC2)nn1Cc1ccc(-c2ccccc2-c2nnn[nH]2)cc1 [Compound 66] | 12
21 | CCCCc1nc(CCCNC(=O)OC(C)(C)C)nn1Cc1ccc(-c2ccccc2-c2nnn[nH]2)cc1 [Compound 68] | 8.6
22 | CCCCc1nc(C(F)(F)C(F)(F)F)nn1Cc1ccc(-c2ccccc2-c2nnn[nH]2)cc1 [Compound 69] | 15
23 | CCCCc1nc(CCCN)n(Cc2ccc(-c3ccccc3-c3nnn[nH]3)cc2)n1 [Compound 71] | 12000
24 | CCCCc1nc(CC)nn1Cc1ccc(-c2ccccc2C(=O)O)cc1 [Compound 75] | 570
25 | CCCCc1nn(/C(Cc2ccccc2)=C(/OCc2ccccc2)c2ccccc2)c(=O)n1Cc1ccc(-c2ccccc2-c2nn[nH]n2)cc1 [Compound 93] | 480

Row | SMILES | IC50 [nM]
26 | CCCCc1nn(C(Cc2ccccc2)C(=O)c2ccccc2)c(=O)n1Cc1ccc(-c2ccccc2-c2nn[nH]n2)cc1 (stereo not shown) [Compound 94] | 5800
27 | CCCCc1nn(CCCCC(=O)OC)c(=O)n1Cc1ccc(-c2ccccc2-c2nn[nH]n2)cc1 [Compound 100] | 4.4
28 | CCCCc1nn(C/C=C/c2ccccc2)c(=O)n1Cc1ccc(-c2ccccc2-c2nn[nH]n2)cc1 [Compound 105] | 290
29 | CCCCn1nc(CCc2ccccc2)nc1Cc1ccc(-c2ccccc2-c2nnn[nH]2)cc1 [Compound 131] | 9.5
30 | CCCCCn1nc(CCCC)nc1Cc1ccc(-c2ccccc2-c2nnn[nH]2)nc1 [Compound 155] | 86
31 | CCCCCc1nc(Cc2ccc(-c3ccccc3-c3nnn[nH]3)nc2)n(CCCC)n1 [Compound 156] | 78
32 | CCCCn1nc(C(F)CCC)nc1Cc1ccc(-c2ccccc2-c2nnn[nH]2)nc1 (stereo not shown) [Compound 161] | 28
33 | CCn1nc(C(C)(F)F)nc1Cc1ccc(-c2ccccc2-c2nnn[nH]2)nc1 [Compound 164] | 1700
34 | CCCCn1nc(C(=O)NC(C)(C)C)nc1Cc1ccc(-c2ccccc2-c2nnn[nH]2)nc1 [Compound 173] | 90
35 | CCCCn1nc(C(OCCC)OCCC)nc1Cc1ccc(-c2ccccc2-c2nnn[nH]2)nc1 [Compound 177] | 26
36 | CCCCn1nc(C(C)(OC)OC)nc1Cc1ccc(-c2ccccc2-c2nnn[nH]2)nc1 [Compound 182] | 59
37 | CCCCn1nc(C(C)=O)nc1Cc1ccc(-c2ccccc2-c2nnn[nH]2)nc1 [Compound 183] | 390
38 | CCCn1cc(CC(C)C)n(Cc2ccc(-c3ccccc3-c3nnn[nH]3)nc2)c1=O [Compound 187] | 770
39 | CCCCn1cc(CC(C)C)n(Cc2ccc(-c3ccccc3-c3nnn[nH]3)nc2)c1=O [Compound 188] | 140
40 | CCCCn1cc(CCC(C)C)n(Cc2ccc(-c3ccccc3-c3nnn[nH]3)nc2)c1=O [Compound 189] | 29
41 | CCCCn1cc(C2CCCC2)n(Cc2ccc(-c3ccccc3-c3nnn[nH]3)nc2)c1=O [Compound 192] | 140
42 | CCCCc1cn(C)c(=O)n1Cc1ccc(-c2ccccc2-c2nnn[nH]2)nc1 [Compound 194] | 47
43 | CCCCc1cn(CC)c(=O)n1Cc1ccc(-c2ccccc2-c2nnn[nH]2)nc1 [Compound 195] | 34
44 | CCCCc1cn(CCC)c(=O)n1Cc1ccc(-c2ccccc2-c2nnn[nH]2)nc1 [Compound 196] | 31
45 | CCCCc1cn(CC(C)C)c(=O)n1Cc1ccc(-c2ccccc2-c2nnn[nH]2)nc1 [Compound 197] | 14
46 | CCCCc1cn(C2CCCC2)c(=O)n1Cc1ccc(-c2ccccc2-c2nnn[nH]2)nc1 [Compound 207] | 99
47 | CCCCc1cn(C2C3CC4CC(C3)C2C4)c(=O)n1Cc1ccc(-c2ccccc2-c2nnn[nH]2)nc1 (stereo not shown) [Compound 213] | 51
48 | CCCCc1cn(C23CC4CC(CC(C4)C2)C3)c(=O)n1Cc1ccc(-c2ccccc2-c2nnn[nH]2)nc1 [Compound 214] | 65
49 | CCCCc1cn(-c2ccccc2)c(=O)n1Cc1ccc(-c2ccccc2-c2nnn[nH]2)nc1 [Compound 215] | 45
50 | CCCCc1cn(-c2ccccc2OC)c(=O)n1Cc1ccc(-c2ccccc2-c2nnn[nH]2)nc1 [Compound 218] | 9

Row | SMILES | IC50 [nM]
51 | CCCCc1cn(-c2ccccc2C(C)C)c(=O)n1Cc1ccc(-c2ccccc2-c2nnn[nH]2)nc1 [Compound 219] | 14
52 | CCCCc1cn(-c2c(C)cccc2C)c(=O)n1Cc1ccc(-c2ccccc2-c2nnn[nH]2)nc1 [Compound 222] | 5
53 | CCCCc1cn(CCCC)c(=O)n1Cc1ccc(-c2ncccc2-c2nnn[nH]2)cc1 [Compound 224] | 91
54 | CCCCc1cn(CCCC)c(=O)n1Cc1ccc(-c2cnccc2-c2nnn[nH]2)cc1 [Compound 225] | 160
55 | CCCCc1cn(CCCC)c(=O)n1Cc1ccc(-c2ccncc2-c2nnn[nH]2)cc1 [Compound 226] | 93
56 | CCCCc1cn(CCCC)c(=O)n1Cc1ccc(-c2cccnc2-c2nnn[nH]2)cc1 [Compound 227] | 89
57 | CCCCc1cn(-c2c(C)cc(C(C)(C)C)cc2C)c(=O)n1Cc1ccc(-c2ccccc2-c2nnn[nH]2)nc1 [Compound 233] | 84
58 | CCCCc1cn(-c2c(C(C)C)cccc2C(C)C)c(=O)n1Cc1ccc(-c2ccccc2-c2nnn[nH]2)nc1 [Compound 235] | 34
59 | CCCCc1cn(C2CCCCC2(C)C)c(=O)n1Cc1ccc(-c2ccccc2-c2nnn[nH]2)nc1 (stereo not shown) [Compound 237] | 3.6
60 | CCCCc1nc(CCCC)n(Cc2ccc(-c3ccccc3C(=O)O)nc2)n1 [Compound 240] | 120
61 | CCCCc1nc(CCCC)n(Cc2ccc(-c3cccnc3-c3nnn[nH]3)cc2)n1 [Compound 242] | 110
62 | CCCCc1nc(CCCC)n(Cc2ccc(-c3ccncc3-c3nnn[nH]3)cc2)n1 [Compound 243] | 250
63 | CCCCc1nc(CCCC)n(Cc2ccc(-c3ncccc3-c3nnn[nH]3)cc2)n1 [Compound 245] | 98
64 | CCCCc1nc(CC(CC)CC)nn1Cc1ccc(-c2ccccc2-c2nnn[nH]2)nc1 [Compound 251] | 25
65 | CCCCc1nc(CC(CC)CC)n(Cc2ccc(-c3ccccc3-c3nnn[nH]3)nc2)n1 [Compound 252] | 13
66 | CCCCc1nc(CCc2ccccc2)nn1Cc1ccc(-c2ccccc2-c2nnn[nH]2)nc1 [Compound 253] | 2.6
67 | CCCCc1nc(CCc2ccccc2)n(Cc2ccc(-c3ccccc3-c3nnn[nH]3)nc2)n1 [Compound 254] | 72
68 | CCCCc1nc(-c2ccccc2)nn1Cc1ccc(-c2ccccc2-c2nnn[nH]2)nc1 [Compound 259] | 54
69 | CCCCc1nc(-c2ccccc2)n(Cc2ccc(-c3ccccc3-c3nnn[nH]3)nc2)n1 [Compound 260] | 220
70 | CCCCc1nc(-c2ccccc2C)nn1Cc1ccc(-c2ccccc2-c2nnn[nH]2)nc1 [Compound 261] | 18
71 | CCCCc1nc(-c2ccccc2C(C)C)nn1Cc1ccc(-c2ccccc2-c2nnn[nH]2)nc1 [Compound 263] | 57
72 | CCCCc1nc(-c2ccccc2C(C)C)n(Cc2ccc(-c3ccccc3-c3nnn[nH]3)nc2)n1 [Compound 264] | 11
73 | CCCCc1nc(-c2ccccc2OC)nn1Cc1ccc(-c2ccccc2-c2nnn[nH]2)nc1 [Compound 265] | 110
